In patent US7332317B2, “Phosphodiesterase and genes thereof” (Tanabe Seiyaku Co., Ltd., priority 1999, dated 2008):
Several values for one entry are separate records, joined by “and”; a condition that tells them apart may be missing. Equal entries are not always repeated. Where two headings read alike, the source gives them in different places.

Columns and labels:
[1] = biological target: T1, human PDE11A1 (Homo sapiens, UniProt Q9HCR9, DUP921-921/R184Q); experiment: Inhibition of human PDE11A1 activity by known PDE inhibitors (radio-labeled nucleotide method)
T1 sequence (Q9HCR9 with tags, fused parts or gaps R184Q/DUP921-921): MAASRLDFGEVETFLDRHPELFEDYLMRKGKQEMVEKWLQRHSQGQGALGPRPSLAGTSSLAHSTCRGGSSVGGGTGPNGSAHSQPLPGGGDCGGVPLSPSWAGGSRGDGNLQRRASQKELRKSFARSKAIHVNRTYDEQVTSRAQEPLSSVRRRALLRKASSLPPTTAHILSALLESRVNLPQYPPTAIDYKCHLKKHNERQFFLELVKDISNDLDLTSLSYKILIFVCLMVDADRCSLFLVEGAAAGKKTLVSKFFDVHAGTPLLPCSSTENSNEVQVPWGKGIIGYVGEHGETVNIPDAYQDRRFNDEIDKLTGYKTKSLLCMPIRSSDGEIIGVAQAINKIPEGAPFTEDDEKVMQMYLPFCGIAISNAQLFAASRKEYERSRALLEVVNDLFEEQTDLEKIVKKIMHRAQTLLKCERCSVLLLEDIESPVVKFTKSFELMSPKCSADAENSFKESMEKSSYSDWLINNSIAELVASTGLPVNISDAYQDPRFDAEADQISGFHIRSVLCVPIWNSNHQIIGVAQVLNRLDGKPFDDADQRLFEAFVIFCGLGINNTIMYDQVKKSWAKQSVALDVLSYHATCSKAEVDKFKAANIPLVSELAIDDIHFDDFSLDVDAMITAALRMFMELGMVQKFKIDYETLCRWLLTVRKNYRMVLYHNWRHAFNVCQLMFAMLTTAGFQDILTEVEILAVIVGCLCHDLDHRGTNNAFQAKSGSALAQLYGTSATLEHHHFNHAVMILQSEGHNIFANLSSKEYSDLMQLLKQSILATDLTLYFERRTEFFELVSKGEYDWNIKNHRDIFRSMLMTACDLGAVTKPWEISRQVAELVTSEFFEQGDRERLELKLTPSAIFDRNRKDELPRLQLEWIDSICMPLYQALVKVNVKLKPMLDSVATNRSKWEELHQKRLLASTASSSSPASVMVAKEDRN

[2] = biological target: T2, human PDE11A2 (Homo sapiens, UniProt Q9HCR9, DUP921-921); experiment: Inhibition of human PDE11A2 activity by known PDE inhibitors (radio-labeled nucleotide method)
T2 sequence (Q9HCR9 with tags, fused parts or gaps isoform Q9HCR9-2 DUP671-671): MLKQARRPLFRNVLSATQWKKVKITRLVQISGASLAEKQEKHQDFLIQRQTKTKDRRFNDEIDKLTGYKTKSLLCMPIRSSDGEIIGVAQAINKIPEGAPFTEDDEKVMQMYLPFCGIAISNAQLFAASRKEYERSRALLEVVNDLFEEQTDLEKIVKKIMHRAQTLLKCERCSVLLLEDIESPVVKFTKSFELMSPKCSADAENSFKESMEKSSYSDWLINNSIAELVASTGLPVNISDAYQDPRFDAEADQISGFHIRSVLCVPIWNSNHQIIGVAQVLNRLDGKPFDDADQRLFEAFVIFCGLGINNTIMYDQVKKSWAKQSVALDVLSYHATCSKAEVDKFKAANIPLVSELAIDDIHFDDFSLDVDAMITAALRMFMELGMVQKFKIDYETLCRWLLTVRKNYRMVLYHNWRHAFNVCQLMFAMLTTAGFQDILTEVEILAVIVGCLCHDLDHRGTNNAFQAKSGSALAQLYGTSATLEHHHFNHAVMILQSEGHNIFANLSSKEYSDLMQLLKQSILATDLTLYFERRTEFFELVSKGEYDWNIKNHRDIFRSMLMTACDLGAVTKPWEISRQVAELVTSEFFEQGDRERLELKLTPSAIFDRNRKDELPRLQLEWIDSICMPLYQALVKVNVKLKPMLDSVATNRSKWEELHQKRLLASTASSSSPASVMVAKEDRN

[3] = biological target: T2, human PDE11A2; experiment: Kinetic analysis of cAMP/cGMP hydrolysis by human PDE11A2 (Lineweaver-Burk plot); format: biochemical; parameters: inserted into a BamHI-XhoI site of an expression vector, pHis, to obtain a vector plasmid pHis-PDE11T for PDE11A2 expression; made in house; host or cells: COS-7 cells; settings: labelled substance as substrate, 0.1 to 10 μM
[4] = test system: human PDE11; experiment: Influence of cGMP on cAMP hydrolysis activity and of cAMP on cGMP hydrolysis activity; format: biochemical; settings: 3.5 μM unlabeled cAMP; 0.01-100 μM cGMP added; PDE11A1 and PDE11A2, FIG. 3
[5] = biological target: T1, human PDE11A1; experiment: Kinetic analysis of cAMP/cGMP hydrolysis by human PDE11A1 (Lineweaver-Burk plot); format: biochemical; parameters: inserted into a BamHI-XhoI site of an expression vector, pcDNA4/HisMaxC; made in house; host or cells: COS-7 cells; settings: labelled substance as substrate, 0.1 to 10 μM
[6] = read-out: IC50 value for human PDE11A1 activity, effect on cGMP hydrolysis activity, substrate 1.3 μM unlabeled cGMP, inhibitor 0-100 μM, recombinant enzyme from COS-7 cells
[7] = read-out: IC50 value for human PDE11A2 activity, effect on cGMP hydrolysis activity, substrate 1.3 μM unlabeled cGMP, inhibitor 0-100 μM, recombinant enzyme from COS-7 cells

Row | SMILES | IC50 [1] | IC50 [2] | IC50 [1, 6] | further results
1 | CN1C(=O)c2[nH]c(Cc3ccc(C(F)(F)F)cc3)nc2N2C1=N[C@@H]1CCC[C@@H]12 (single isomer, unassigned) [SCH51866, (+)-cis-5-methyl-2-[4-(trifluoromethyl)benzyl]-3,4,5,6a,7,8,9,9a-octahydrocyclopent[4,5]imidazo-[2,1-b]purin-4-one] | 22 µM and 25 µM | 11 µM and 8.6 µM |  | 
2 | CC(C)Cn1c(=O)n(C)c(=O)c2[nH]cnc21 [IBMX, 3-isobutyl-1-methylxanthine] | 65 µM and 81 µM | 30 µM and 38 µM |  | 
3 | COc1ccc(C2CNC(=O)C2)cc1OC1CCCC1 (centres unmarked) [Rolipram] | > 100 µM | > 100 µM | > 100 µM | IC50 [2, 7]: > 100 µM
4 | Nc1ncnc2c1ncn2[C@@H]1O[C@@H]2COP(=O)(O)O[C@H]2[C@H]1O [cAMP] |  |  |  | Vmax of human PDE11A2 [3]: 9.63±1.88 pmol/min/μg protein
5 | Nc1nc2c(ncn2[C@@H]2O[C@@H]3COP(=O)(O)O[C@H]3[C@H]2O)c(=O)[nH]1 [cGMP] |  |  |  | cAMP hydrolysis activity (relative value %) on addition of cGMP [4]: lowered depending on a concentration of cGMP added; Km [3]: 1.47 ± 0.115 µM; Vmax of human PDE11A2 [3]: 4.02±0.214 pmol/min/μg protein; Km [5]: 1.43 ± 0.109 µM; Vmax of human PDE11A1 [5]: 121±8.08 pmol/min/μg of protein

The next lines start with results.

Row | IC50 [1] | IC50 [2] | IC50 [1, 6] | SMILES | further results
6 | 1.8 ± 0.33 µM | 0.88 µM and 0.66 µM |  | O=C(O)C1CCN(c2nc(NCc3ccc4c(c3)OCO4)c3cc(Cl)ccc3n2)CC1 [E4021, sodium 1-[6-chloro-4-(3,4-methylenedioxybenzyl)aminoquinazolin-2-yl]pyperidine-4-carboxylate] | 
7 | > 100 µM | > 100 µM | > 100 µM | Cc1[nH]c(=O)c(C#N)cc1-c1ccncc1 [Milrinone] | IC50 [2, 7]: > 100 µM
8 | > 100 µM | 49 µM and 68 µM | > 100 µM | CCOC(=O)C1=C[C@]2(CC)CCCN3CCc4c(n1c1ccccc41)[C@@H]32 [Vinpocetine] | 
